Assay results as given in patent publication US20100130522A1, “COMPOUNDS FOR INFLAMMATION AND IMMUNE-RELATED USES” (Synta Pharmaceuticals Corp., priority 2008, published 2010).
Structures can show the parent of a compound that is named as a salt.

Columns and labels:
[1] = tested on: IL-2 production, Jurkat cells; assay: Inhibition of IL-2 production in PHA-activated Jurkat cells (ELISA); type: cell-based; conditions: Homo sapiens, 1% FBS, given as activity class
Method: Jurkat cells were placed in a 96 well plate (0.5 million cells per well in 1% FBS medium), and then a test compound of this invention was added at different concentrations. After 10 minutes, the cells were activated with PHA (final concentration 2.5 μg/mL) and incubated for 20 hours at 37° C. under 5% CO2. The final volume was 200 μL. Following incubation, the cells were centrifuged, and the supernatants collected and stored at −70° C. prior to assaying for IL-2 production. A commercial ELISA kit (IL-2 Eli-pair, Diaclone Research, Besancon, France) was used to detect production of IL-2, from which dose response curves were obtained. The IC50 value was calculated as the concentration at which 50% of maximum IL-2 production after stimulation was inhibited versus a non-stimulation control.

[2] = target: T1, CRACM1/STIM1-CHOK1 (Homo sapiens, UniProt Q96D31); assay: Patch clamp inhibition of ICRAC current in CRACM1/STIM1-CHOK1 cells; type: cell-based; conditions: 500 nM; given as activity class
T1 construct: Full length human Stim1, CracM1, CracM2 and CracM3 cDNA; Stim1 induced with doxycycline
Method: Manual patch clamp experiments are conducted in the tight-seal whole-cell configuration at room temperature (21-25° C.). Patch pipettes are fashioned from borosilicate glass capillary tubes and have resistances between 2-4 MΩ after filling with standard intracellular solution. High resolution current recordings are acquired with a computer-based patch clamp amplifier system (EPC-10, HEKA, Lambrecht, Germany). All voltages are corrected for a liquid junction potential of 10 mV between external and internal solutions with glutamate as the intracellular anion. Currents are filtered at 2.9 kHz and digitized at 10 μs intervals. Capacitive currents and series resistance are determined and corrected before each voltage ramp using the automatic capacitance compensation of the EPC-10.
Automated patch clamp experiments are conducted with the QPatch 16 (Sophion Bioscience, Ballerup, Denmark) at room temperature (21-25° C.). Immediately following the establishment of giga-seal whole-cell configuration, the cells membrane potential is clamped at 0 mV. Voltage ramps of 50 ms duration spanning the voltage range of −100 to +100 mV are then stimulated at a rate of 0.33 Hz. Currents are filtered at 2.9 kHz and digitized at 200 μs intervals. Capacitive currents and series resistance are determined and corrected before each voltage ramp using the automatic capacitance compensation.
In general, a whole cell patch clamp method is used to examine the effects of a compound of the invention on a channel(s) that mediates ICRAC. In such experiments, a baseline ICRAC measurement is established within the first 70 voltage ramps, or 140 seconds, for a patched cell. Then the cells are perfused with the compound to be tested and the effect of the compound on ICRAC is measured for at least an additional 440 to 500 seconds. A compound that modulates ICRAC (e.g., inhibits) is a compound that is useful in the invention for modulating CRAG ion channel activity.
Off-line analysis with the Heka PatchMaster software is used to separate the ICRAC membrane current from the cells basal background currents. In a typical recording, InsP3 stimulated ICRAC currents begin to develop in 6 to 12 seconds after whole cell is established. Therefore, the first 1-4 voltage ramps represent the basal membrane currents in the absence of ICRAC and the average value is subtracted from all subsequent traces. The current value at −80 mV for each ramp trace is then measured and plotted against time. The resulting current versus time data is exported into a Microsoft Excel spreadsheet. The % ICRAC inhibition in each cell is calculated by comparing the amount of current just prior to the compound perfusion to the amount of current after the cells has been perfused with the compound for 440-500 seconds. The IC50 value and Hill coefficient for each compound is estimated by fitting all the individual data points to a single-site Hill equation.
TREx™-CHO cells were transfected with human Stim1 (recombinant DNA in pcDNA4/TO/myc-His™ A with a myc epitope tag in the N-terminal) and either CracM1, CracM2 or CracM3 (recombinant DNA in pcDNA 3.1 with a HA epitope tag in the N-terminal). Stably expressing cells were selected by growing the transfected cells in antibiotics for two to three weeks. Individual cell clones were isolated via serial dilution. Full length human Stim1, CracM1, CracM2 and CracM3 cDNA, TREx™-CHO cells, pcDNA4/TO/myc-His™ A and pcDNA 3.1 were purchased from Invitrogen (Carlsbad, Calif.). All cells clones are grown in Ham's F-12 media supplemented with 10% fetal bovine serum, penicillin 100 U/ml, streptomycin 100 ? g/ml, Zeocin™ (200 ? g/ml), Geneticin (500 ? g/ml) and blasticidin (10 ? g/ml) in an atmosphere of 95% air/5% CO2. Stim1 expression was induced with doxycycline (1 ? g/ml) for 16-20 hrs. […]

T1 sequence (Q96D31 whole entry): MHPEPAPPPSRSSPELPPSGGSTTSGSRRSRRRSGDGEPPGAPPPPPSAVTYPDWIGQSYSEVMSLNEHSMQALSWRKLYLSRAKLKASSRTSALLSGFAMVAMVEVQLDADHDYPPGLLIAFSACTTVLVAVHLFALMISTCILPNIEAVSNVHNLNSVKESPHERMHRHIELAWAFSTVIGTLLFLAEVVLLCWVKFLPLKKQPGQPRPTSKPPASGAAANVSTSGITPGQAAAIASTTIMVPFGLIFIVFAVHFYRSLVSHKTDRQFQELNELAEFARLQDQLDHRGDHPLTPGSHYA

IC50 [1] [nM]	inhibition at 0.5 µM [2] [%]	SMILES
< 50	< 50	Cc1ccc(-c2nc(-c3cccnc3)cs2)cc1-c1ccc(NC(=O)c2c(F)cccc2F)cc1 [Compound 19, 2,6-difluoro-N-(2′-methyl-5′-(4-(pyridin-3-yl)thiazol-2-yl)biphenyl-4-yl)benzamide hydrochloride]
< 50	70 to 100	Cc1ccc(-c2nc(-c3cccnc3)cs2)cc1-c1cnc(NC(=O)c2c(F)cccc2F)cn1 [Compound 20, 2,6-difluoro-N-(5-(2-methyl-5-(4-(pyridin-3-yl)thiazol-2-yl)phenyl)pyrazin-2-yl)benzamide]
50 to 100	< 50	Cc1ccc(-c2ncc(-c3cnco3)s2)cc1-c1ccc(NC(=O)c2c(F)cccc2F)cc1 [Compound 21, 2,6-difluoro-N-(2′-methyl-5′-(5-(oxazol-5-yl)thiazol-2-yl)biphenyl-4-yl)benzamide]
< 50	70 to 100	COc1ccc(-c2ccc(C)c(-c3ccc(NC(=O)c4c(F)cccc4F)cc3)c2)cn1 [Compound 22, 2,6-difluoro-N-(5′-(6-methoxypyridin-3-yl)-2′-methylbiphenyl-4-yl)benzamide]
